Assay results reported in article PMC4045324 (Biochemistry, 2014).
Marks after values point to notes of the source that are not given here.

Key:
wild-type MtDXR [1] = conditions: ref Liu and Murkin 17; cited from earlier work
M. tuberculosis = conditions: cited from earlier work
DXR = conditions: read-out: Ki values; cited from earlier work
P. falciparum = conditions: cited from earlier work
wild-type MtDXR [2] = conditions: pH 7.6; cited from earlier work
wild-type MtDXR [3] = target: wild-type MtDXR (Mycobacterium tuberculosis, UniProt P9WNS1); type: binding
[4] = test system: CC(=O)[C@@H](O)[C@H](O)COP(=O)(O)O; assay: purified protein, by the assay type; conditions: pH 7.5; 25.0 °C

Sequence of wild-type MtDXR (Mycobacterium tuberculosis, UniProt P9WNS1) (P9WNS1 1-389): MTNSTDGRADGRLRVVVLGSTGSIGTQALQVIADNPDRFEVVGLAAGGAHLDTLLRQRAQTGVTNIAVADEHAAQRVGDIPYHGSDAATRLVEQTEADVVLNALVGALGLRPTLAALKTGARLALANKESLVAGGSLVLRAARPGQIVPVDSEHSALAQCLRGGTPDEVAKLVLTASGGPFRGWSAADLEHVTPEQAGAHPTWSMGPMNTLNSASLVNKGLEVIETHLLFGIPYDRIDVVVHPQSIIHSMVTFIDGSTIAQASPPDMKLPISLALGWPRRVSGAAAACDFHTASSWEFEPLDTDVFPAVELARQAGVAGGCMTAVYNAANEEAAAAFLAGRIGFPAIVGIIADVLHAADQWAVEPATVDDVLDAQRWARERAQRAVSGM

## CC(=O)[C@@H](O)[C@H](O)COP(=O)(O)O [DXP, 1-deoxy-D-xylulose 5-phosphate]
wild-type MtDXR [1]
  Km: 115 ± 7 µM

## O=CN(O)CCCP(=O)(O)O [fosmidomycin]
M. tuberculosis
  activity against M. tuberculosis: poorly active
DXR
  Ki: 10 to 100 nM
P. falciparum
  treatment of malaria caused by P. falciparum: effective
wild-type MtDXR [2]
  Kd: 290 nM
  ΔG°: –8.34 ^e kcal/mol
  ΔH°: –6.0 ^e kcal/mol
  –TΔS°: –2.3 ^e kcal/mol
wild-type MtDXR [3]
  enthalpy share of total binding energy: 50%
wild-type MtDXR [3]; pH 7.5
  ΔG°: –9.82 ± 0.08 kcal/mol
  ΔH°: –4.8 ± 0.7 kcal/mol
  –TΔS°: –5.0 ± 0.7 kcal/mol

## (Mycobacterium tuberculosis H37Rv)
[4]
  Km: 137 ± 12 µM
  kcat: 4.2 ± 0.2 s⁻¹
  kcat/Km: 31000 ± 2000 M⁻¹ s⁻¹
